# T1: human TLR9 (Homo sapiens, UniProt Q9NR96, H530R/Q688R)
# T1 construct: expressed in transfected cells
# T1 sequence (Q9NR96 26-1032 H530R/Q688R): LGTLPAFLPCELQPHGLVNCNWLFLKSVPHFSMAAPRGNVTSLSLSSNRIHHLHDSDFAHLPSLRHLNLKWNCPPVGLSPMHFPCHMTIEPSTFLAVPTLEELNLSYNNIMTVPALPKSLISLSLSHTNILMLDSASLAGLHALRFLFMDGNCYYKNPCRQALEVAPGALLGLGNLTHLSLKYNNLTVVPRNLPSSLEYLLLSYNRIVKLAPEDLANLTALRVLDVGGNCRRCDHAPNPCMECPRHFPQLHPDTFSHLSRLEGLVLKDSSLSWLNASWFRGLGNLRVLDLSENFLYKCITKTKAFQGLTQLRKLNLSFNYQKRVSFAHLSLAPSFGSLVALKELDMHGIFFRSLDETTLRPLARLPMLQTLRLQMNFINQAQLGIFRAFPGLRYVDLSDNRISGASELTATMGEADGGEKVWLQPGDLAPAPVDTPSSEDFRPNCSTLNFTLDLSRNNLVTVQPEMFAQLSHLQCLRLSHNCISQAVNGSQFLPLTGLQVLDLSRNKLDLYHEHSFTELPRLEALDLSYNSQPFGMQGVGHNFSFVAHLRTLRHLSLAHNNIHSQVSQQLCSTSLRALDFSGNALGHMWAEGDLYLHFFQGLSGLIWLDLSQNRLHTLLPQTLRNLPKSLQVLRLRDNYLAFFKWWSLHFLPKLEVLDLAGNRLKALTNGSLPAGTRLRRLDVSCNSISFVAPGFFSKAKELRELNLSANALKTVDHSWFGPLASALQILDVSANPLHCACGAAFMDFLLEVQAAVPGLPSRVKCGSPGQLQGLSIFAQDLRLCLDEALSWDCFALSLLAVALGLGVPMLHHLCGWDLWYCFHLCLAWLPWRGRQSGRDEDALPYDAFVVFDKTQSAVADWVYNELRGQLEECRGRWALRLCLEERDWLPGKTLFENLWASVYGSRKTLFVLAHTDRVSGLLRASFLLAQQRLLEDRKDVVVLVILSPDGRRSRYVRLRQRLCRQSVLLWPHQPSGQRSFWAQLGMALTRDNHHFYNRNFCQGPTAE
# B1: IL-4: the cytokine IL-4 (protein, UniProt P05112 25-153, looked up)
# Interleukin-4: HKCDITLQEIIKTLNSLTEQKTLCTELTVTDIFAASKNTTEKETFCRAATVLRQFYSHHEKDTRCLGATAQQFHRHKQLIRFLKRLDRNLWGLAGLNSCPVKEANQSTLENFLERLKTIMREKYSKCSS
# Assays:
# Format in all cases: cell-based
# human TLR9 [1] = target: T1, human TLR9; assay: NF-κB-luciferase activation in 293 cells transfected with human TLR9 (293-hTLR9-luc); settings: 12 hours
# human TLR9 [2] = target: T1, human TLR9; assay: as above; settings: ODN concentration of half-maximal activation; 293-hTLR9-luc cells, NF-κB-driven luciferase readout, 12 hours; read-out: 293-hTLR9 Kac
# Description: Since NF-κB activation is central to the IL-1/TLR signal transduction pathway (Medzhitov R et al., Mol Cell 2:253-258 (1998); Muzio M et al., J Exp Med 187:2097-2101 (1998)), cells were transfected with hTLR9 or co-transfected with hTLR9 and a NF-κB-driven luciferase reporter construct. Human fibroblast 293 cells were transiently transfected with (FIG. 1A) hTLR9 and a six-times NF-κB-luciferase reporter plasmid (NF-κB-luc, kindly provided by Patrick Baeuerle, Munich, Germany) or (FIG. 1B) with hTLR9 alone. After stimulus with CpG-ODN (2006, 2 μM, […], SEQ ID NO:112), GpC-ODN (2006-GC, 2 μM, […], SEQ ID NO:118), LPS (100 ng/ml) or media, NF-κB activation by luciferase readout (8 h, FIG. 1A) or IL-8 production by ELISA (48 h, FIG. 1B) were monitored. Results are representative of three independent experiments.
# To generate stable clones expressing human TLR9, murine TLR9, or either TLR9 with the NF-κB-luc reporter plasmid, 293 cells were transfected in 10 cm plates (2×10^6 cells/plate) with 16 μg of DNA and selected with 0.7 mg/ml G418 (PAA Laboratories GmbH, Cölbe, Germany). The clones were also screened for IL-8 production or NF-κB-luciferase activity after stimulation with ODN. Four different types of clones were generated. • 293-hTLR9-luc: expressing human TLR9 and 6-fold NF-κB-luciferase reporter • 293-mTLR9-luc: expressing murine TLR9 and 6-fold NF-κB-luciferase reporter • 293-hTLR9: expressing human TLR9 • 293-mTLR9: expressing murine TLR9 […]
# Because stable TLR9 transfectants mirrored primary cell responsiveness to CpG-DNA (FIGS. 4 and 5), it was hypothesized that stable transfectants could potentially discern species-specific CpG-motifs through TLR9 receptors. Therefore 293-hTLR9-luc (expressing human TLR9 and 6-fold NF-κB-luc reporter), 293-mTLR9-luc (expressing murine TLR9 and 6-fold NF-κB-luc reporter), 293-hTLR9 (expressing human TLR9) and 293-mTLR9 (expressing murine TLR9) clones were tested for CpG-DNA motif responsiveness. […] Depicted are both NF-κB-driven luciferase and IL-8 production as readout. […] After lysis of the cells luciferase can be detected photometrically based on an enzymatic reaction by luciferase which creates photons. IL-8 production was monitored using enzyme-linked immunosorbent assay (ELISA). FIG. 11 depicts clones stimulated with ODN 2006 (filled circle), ODN 2006-GC (open circle), ODN 1668 (filled triangle) or ODN 1668-GC (open triangle) at indicated concentrations and NF-κB activation or IL-8 production were measured after 10 and 48 hours, respectively. Results shown in FIG. 11 are representative of three independent experiments. Strikingly, CpG-motif sequence specificity was conferred in a species-specific manner by TLR9. Additionally, the half-maximal concentration for either 2006 or 1668 appears nearly the same as those determined on primary cells (compare FIG. 10 and FIG. 11).
# Although 2006 and 1668 are discussed in terms of CpG-motif differences, they are very different in several aspects (see Table 5 for comparison). The lengths are different, 24 versus 20 nucleotides, and 2006 has four CG dinucleotides compared to one in 1668. Additional differences are the CG position relative to the 5′ and 3′ ends and also 5′ sequence differences. In order to determine if motif specificity is a quality of the motif and not the global sequence environment, for this experiment several sequences were produced holding these variables constant. As a starting point, the 1668 sequence was modified by converting the central C to T and the distal TG to CG, thereby creating a second CG in the resulting sequence 5000 (SEQ ID NO:130, Table 5). Then point nucleotide changes were made, progressing toward a 2006-like sequence, 5007 (SEQ ID NO:98). The ODN 5002 (SEQ ID NO:132) is most like 1668 with the exception that C's at positions 12 and 19 have been converted to T's. […]
# TLR9 = assay: Expression of TLR9
# Description: The invention also embraces agents which bind selectively to certain regulatory sequences associated with the murine TLR9 nucleic acid molecules described herein. The agents include polypeptides which bind to transcription and translation regulatory sequences of murine TLR9, and antisense nucleic acids, both of which are described in greater detail below. The agents can inhibit or increase murine TLR9 expression, as well as signaling activity (antagonists and agonists, respectively). Agents which bind selectively to regulatory sequences associated with the murine TLR9 nucleic acid molecules can be identified using methods familiar to those of skill in the art. For example, a promoter region including at least 100, 200, 300, 400, 500, or more nucleotides upstream (5′) of the coding region of murine TLR9 can be identified by isolating, from appropriate genomic DNA, such nucleotide sequences using the sequences of SEQ ID NO:1 or SEQ ID NO:2 as primers or as probes, and then inserting the promoter region DNA into an appropriate expression vector so as to control the expression of TLR9 or some other reporter gene, introducing the TLR9 promoter vector into an appropriate host cell, and screening for TLR9 or reporter expression by those cells following their incubation in the presence and absence of various test agents. […]
molecule,measurement,setting,value
"5′-HHHHHHHHHHHHHHWGGGGG-3′ (chemistry not given here) [blocking ODN, H=A, T, C; W=A, T]",blockade of CpG-ODN-induced NF-κB activation,"human TLR9 [1]; 293-hTLR9-luc cells, CpG-ODN 0.5 μM, increasing concentrations of blocking ODN",sensitive to non-CpG-ODN blockade
same,TNF-driven NF-κB signal,"human TLR9 [1]; 293-hTLR9-luc cells, TNF-α 10 ng/ml, increasing concentrations of blocking ODN",not diminished
CO/C1=C\C(C)=C\[C@@H](C)[C@@H](O)[C@@H](C)C/C(C)=C/C=C/[C@H](OC)[C@@H]([C@@H](C)[C@@H](O)[C@H](C)[C@@]2(O)C[C@@H](O)[C@H](C)[C@@H](C(C)C)O2)OC1=O [Bafilomycin A],CpG-ODN induction of NF-κB,"human TLR9 [1]; 293-hTLR9-luc cells preincubated 30 min with 10 nM, CpG-ODN 2006 0.5 μM",fully blocks
same,IL-1 and TNF induction of NF-κB,"human TLR9 [1]; 293-hTLR9-luc cells preincubated 30 min with 10 nM, IL-1 10 ng/ml or TNF-α 10 ng/ml",unaffected
"TCCATGACGTTCTTGATGTT (listed as DNA, chemistry not fully specified) [ODN 5002]",EC50,human TLR9 [2],7 µM
"TCCATGACGTTTTTGATGTT (listed as DNA, chemistry not fully specified) [ODN 5003]",EC50,human TLR9 [2],10 µM
B1,expression of TLR9,TLR9,inhibits

# — US7820379B2, “Process for high throughput screening of CpG-based immuno-agonist/antagonist” (Coley Pharmaceutical GmbH, priority 2000, dated 2010)
